Measured values from the NIST ThermoML archive (doi:10.1016/j.fluid.2012.11.005).

Test: excess molar enthalpy (molar enthalpy of mixing); xn = mol fraction of the nth substance listed
Conditions: 101 kPa, Liquid, Flow calorimetry

CCCCCO [pentan-1-ol] + CC(C)CC(C)(C)C
excess molar enthalpy [kcal/mol]
Conditions | 298.15 K | 313.15 K
x1 = 0.0508 | 0.0899 | –
x1 = 0.051 | – | 0.124
x1 = 0.0999 | 0.112 | –
x1 = 0.1003 | – | 0.155
x1 = 0.1501 | 0.126 | –
x1 = 0.1506 | – | 0.174
x1 = 0.2008 | 0.137 | –
x1 = 0.2019 | – | 0.187
x1 = 0.25 | 0.143 | –
x1 = 0.2512 | – | 0.194
x1 = 0.2999 | 0.148 | –
x1 = 0.3012 | – | 0.199
x1 = 0.3516 | 0.148 | –
x1 = 0.3517 | – | 0.2
x1 = 0.4025 | 0.147 | –
x1 = 0.4026 | – | 0.199
x1 = 0.4514 | 0.145 | 0.194
x1 = 0.5025 | 0.139 | –
x1 = 0.5026 | – | 0.187
x1 = 0.5516 | 0.131 | –
x1 = 0.5517 | – | 0.177
x1 = 0.6025 | 0.121 | –
x1 = 0.6026 | – | 0.164
x1 = 0.6513 | 0.109 | 0.148
x1 = 0.7015 | 0.0951 | –
x1 = 0.7016 | – | 0.13
x1 = 0.7512 | 0.0802 | –
x1 = 0.7513 | – | 0.11
x1 = 0.8003 | 0.064 | 0.088
x1 = 0.8503 | 0.048 | 0.0654
x1 = 0.9008 | 0.0311 | 0.0423
x1 = 0.9503 | 0.0147 | 0.0205
x1 = 1 | 0 | 0

CC(C)CC(C)(C)C [2,2,4-trimethylpentane] + CCCCCO
x2 = 0
Conditions | excess molar enthalpy [kcal/mol]
298.15 K | 0
313.15 K | 0

CCCCCO [pentan-1-ol] + CCCCCCC
excess molar enthalpy [kcal/mol]
Conditions | 298.15 K | 313.15 K
x1 = 0.0484 | – | 0.113
x1 = 0.0563 | 0.088 | –
x1 = 0.0981 | – | 0.148
x1 = 0.1109 | 0.111 | –
x1 = 0.149 | – | 0.165
x1 = 0.1664 | 0.125 | –
x1 = 0.1985 | – | 0.177
x1 = 0.2203 | 0.134 | –
x1 = 0.2491 | – | 0.187
x1 = 0.2749 | 0.141 | –
x1 = 0.2983 | – | 0.19
x1 = 0.3279 | 0.145 | –
x1 = 0.3483 | – | 0.192
x1 = 0.3793 | 0.146 | –
x1 = 0.3991 | – | 0.186
x1 = 0.4314 | 0.144 | –
x1 = 0.4484 | – | 0.186
x1 = 0.4818 | 0.139 | –
x1 = 0.4984 | – | 0.177
x1 = 0.5328 | 0.131 | –
x1 = 0.5488 | – | 0.166
x1 = 0.5822 | 0.122 | –
x1 = 0.5977 | – | 0.159
x1 = 0.6281 | 0.11 | –
x1 = 0.6489 | – | 0.144
x1 = 0.6765 | 0.0984 | –
x1 = 0.7003 | – | 0.124
x1 = 0.7235 | 0.0849 | –
x1 = 0.7483 | – | 0.106
x1 = 0.7725 | 0.071 | –
x1 = 0.7981 | – | 0.0845
x1 = 0.8182 | 0.0576 | –
x1 = 0.8497 | – | 0.0637
x1 = 0.8643 | 0.0427 | –
x1 = 0.8995 | – | 0.042
x1 = 0.9104 | 0.0282 | –
x1 = 0.9491 | – | 0.0196
x1 = 0.9552 | 0.0138 | –
x1 = 1 | 0 | 0

CCCCCCC [heptane] + CCCCCO
x2 = 0
Conditions | excess molar enthalpy [kcal/mol]
298.15 K | 0
313.15 K | 0
